According to patent US6211244A, “Calcium receptor-active compounds” (priority 1995, dated 2001):

Target: T1, human calcium receptor (Homo sapiens, UniProt P41180, R990G)
T1 construct: expressed in transfected cells; host or cells: HEK 293
T1 sequence (P41180 20-1078 R990G): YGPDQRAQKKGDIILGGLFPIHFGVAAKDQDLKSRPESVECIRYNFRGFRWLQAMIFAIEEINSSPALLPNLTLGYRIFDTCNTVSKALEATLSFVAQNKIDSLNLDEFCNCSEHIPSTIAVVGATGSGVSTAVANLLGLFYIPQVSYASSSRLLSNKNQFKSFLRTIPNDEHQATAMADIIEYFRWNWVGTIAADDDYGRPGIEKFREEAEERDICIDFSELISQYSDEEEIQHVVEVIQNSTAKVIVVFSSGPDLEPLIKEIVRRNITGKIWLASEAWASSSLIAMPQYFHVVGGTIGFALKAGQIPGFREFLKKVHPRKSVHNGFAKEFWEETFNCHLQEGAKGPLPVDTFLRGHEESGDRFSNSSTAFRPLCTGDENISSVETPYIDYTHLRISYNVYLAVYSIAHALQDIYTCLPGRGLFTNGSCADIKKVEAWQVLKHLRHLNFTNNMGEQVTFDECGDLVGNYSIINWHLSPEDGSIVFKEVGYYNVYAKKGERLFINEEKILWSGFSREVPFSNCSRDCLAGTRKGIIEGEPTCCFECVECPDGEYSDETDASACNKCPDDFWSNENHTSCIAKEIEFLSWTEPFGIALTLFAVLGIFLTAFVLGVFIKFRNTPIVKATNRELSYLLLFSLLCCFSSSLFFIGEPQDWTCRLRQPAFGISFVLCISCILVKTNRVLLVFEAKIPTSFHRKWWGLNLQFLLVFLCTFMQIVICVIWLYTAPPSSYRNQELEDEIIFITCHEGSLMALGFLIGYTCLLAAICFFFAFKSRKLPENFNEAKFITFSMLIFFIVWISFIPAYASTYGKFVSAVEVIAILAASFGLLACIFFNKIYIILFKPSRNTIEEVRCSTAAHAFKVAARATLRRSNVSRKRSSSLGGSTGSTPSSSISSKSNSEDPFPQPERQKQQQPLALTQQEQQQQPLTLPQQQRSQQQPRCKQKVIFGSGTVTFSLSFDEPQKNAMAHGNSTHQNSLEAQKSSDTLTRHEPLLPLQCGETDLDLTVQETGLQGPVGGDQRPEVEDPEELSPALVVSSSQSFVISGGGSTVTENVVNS
Assay: increases in [Ca^2+ ]i in HEK-293 cells expressing the human calcium receptor (fura-2 loaded HEK 293/pHuPCaR4.0 cells), % activity
Type: cell-based
Conditions: for activity at […]: HEK293

Compound	activity at […] (33 ng/mL)	activity at […] (330 ng/mL)	% activity (33 ng/mL)	% activity (330 ng/mL)	% activity (3300 ng/mL)
C[C@H](CCc1cccc(OC(F)(F)F)c1)N[C@@H](C)c1cccc2ccccc12 [Compound 22X, (S,R)-N-[4-(3-trifluoromethoxyphenyl)-2-butyl]-1-(1-naphthyl)ethylamine]	48%	86%	–	–	–
C[C@H](CCc1cccc(OC(F)(F)F)c1)N[C@H](C)c1cccc2ccccc12 [Compound 22Y, (R,R)-N-[4-(3-trifluoromethoxyphenyl)-2-butyl]-1-(1-naphthyl)ethylamine]	64%	114%	–	–	–
COc1cccc([C@@H](C)N[C@H](C)CCc2cccc(OC(F)(F)F)c2)c1 [Compound 23A, (R,R)-N-[4-(3-trifluoromethoxyphenyl)-2-butyl]-1-(3-methoxyphenyl)ethylamine]	–	–	67%	103%	–
Cc1ccc(CNCc2cccc3c(Br)cccc23)cc1C [Compound 23D]	–	–	35%	66%	91%
C[C@@H](NCc1cccc(OC(F)(F)F)c1)c1cccc2ccccc12 [Compound 23E]	–	–	102%	113%	137%
C[C@@H](NCc1ccc(OC(F)(F)F)cc1)c1cccc2ccccc12 [Compound 23F]	–	–	45%	82%	–
COc1ccc(CNC(C)c2ccccc2)cc1C (stereo not shown) [Compound 23G]	–	–	67%	93%	127%
COc1ccc(CNC(C)c2ccccc2OC)cc1C (stereo not shown) [Compound 23H]	77%	114%	–	–	–
COc1cccc(C(C)NCc2ccc(OC)c(C)c2)c1 (stereo not shown) [Compound 23I]	–	–	58%	102%	–
COc1ccc(CNC(C)c2ccccc2F)cc1C (stereo not shown) [Compound 23J]	–	–	51%	61%	102%
COc1ccc(CNC(C)c2cccc(F)c2)cc1C (stereo not shown) [Compound 23K]	–	–	72%	107%	106%
COc1ccc(CNC(C)c2ccc(F)cc2)cc1C (stereo not shown) [Compound 23L]	–	–	37%	77%	107%
COc1ccc(CNC(C)c2ccccc2Cl)cc1C (stereo not shown) [Compound 23M]	–	–	74%	97%	113%
COc1ccc(CNC(C)c2cccc(Cl)c2)cc1C (stereo not shown) [Compound 23N]	–	–	50%	96%	–
COc1ccc(CNC(C)c2ccc(Cl)cc2)cc1C (stereo not shown) [Compound 23O]	–	–	46%	79%	111%
COc1ccc(CNC(C)c2ccccc2Br)cc1C (stereo not shown) [Compound 23P]	–	–	70%	99%	125%
COc1ccc(CNC(C)c2cccc(Br)c2)cc1C (stereo not shown) [Compound 23Q]	–	–	98%	114%	122%
COc1ccc(CNC(C)c2ccc(Br)cc2)cc1C (stereo not shown) [Compound 23R]	–	–	54%	86%	104%
COc1ccc(CNC(C)c2cccc(I)c2)cc1C (stereo not shown) [Compound 23S]	–	–	53%	97%	–
COc1ccc(CNC(C)c2ccc(I)cc2)cc1C (stereo not shown) [Compound 23T]	–	–	60%	74%	102%
COc1ccc(CNC(C)c2cccc(C(C)=O)c2)cc1C (stereo not shown) [Compound 23U]	–	–	48%	87%	–
COc1ccc(CNC(C)c2ccccc2C)cc1C (stereo not shown) [Compound 23W]	–	–	81%	97%	117%
COc1ccc(CNC(C)c2cccc(C)c2)cc1C (stereo not shown) [Compound 23X]	–	–	49%	94%	–
COc1ccc(CNC(C)c2cccc(C)c2)cc1C (stereo not shown) [Compound 23Y]	–	–	61%	87%	106%
CCc1cccc(C(C)NCc2ccc(OC)c(C)c2)c1 (stereo not shown) [Compound 23Z]	–	–	100%	126%	129%

Compound	activity at […] (33 ng/mL)	activity at […] (330 ng/mL)	% activity (33 ng/mL)	% activity (330 ng/mL)	% activity (3300 ng/mL)
CCc1ccc(C(C)NCc2ccc(OC)c(C)c2)cc1 (stereo not shown) [Compound 24A]	–	–	52%	85%	122%
COc1ccc(CNC(C)c2ccccc2C(F)(F)F)cc1C (stereo not shown) [Compound 24B]	–	–	34%	61%	76%
COc1ccc(CNC(C)c2cccc(C(F)(F)F)c2)cc1C (stereo not shown) [Compound 24C]	–	–	87%	113%	116%
COc1ccc(CNC(C)c2ccc(C(F)(F)F)cc2)cc1C (stereo not shown) [Compound 24D]	–	–	34%	53%	87%
COc1ccc(CNC(C)c2cccc(C#N)c2)cc1C (stereo not shown) [Compound 24E]	–	–	35%	71%	94%
COc1ccc(CNC(C)c2ccc(C)c(C)c2)cc1C (stereo not shown) [Compound 24G]	–	–	75%	94%	109%
COc1ccc(CNC(C)c2ccc(F)c(F)c2)cc1C (stereo not shown) [Compound 24I]	–	–	55%	84%	109%
C[C@@H](NCCCc1cccc(OC(F)(F)F)c1)c1cccc2ccccc12 [Compound 24J]	–	–	75%	103%	–
COc1cccc([C@@H](C)NCCCc2cc(F)ccc2F)c1 [Compound 24K]	–	–	78%	106%	–
COc1cccc([C@@H](C)NCCCc2c(F)cccc2F)c1 [Compound 24L]	–	–	62%	105%	–
COc1cccc([C@@H](C)NCCCc2cc(F)cc(F)c2)c1 [Compound 24M]	–	–	99%	134%	132%
CC(NCCCc1ccccc1Cl)c1cccc(Cl)c1 (stereo not shown) [Compound 24O]	–	–	58%	114%	137%
COc1cccc([C@@H](C)NC(C)CCc2cc(F)cc(F)c2)c1 (stereo partly shown) [Compound 24P]	–	–	110%	138%	140%
COC(=O)c1cccc(C(C)NCc2ccc(OC)c(C)c2)c1 (stereo not shown) [Compound 24U]	–	–	78%	106%	106%
CCOC(=O)COc1cccc(C(C)NCc2ccc(OC)c(C)c2)c1 (stereo not shown) [Compound 24V]	–	–	71%	98%	127%
COc1ccc(CN[C@H](C)c2cccc3ccccc23)cc1Br [Compound 24X]	–	–	124%	109%	126%
CCOc1ccc(CN[C@H](C)c2cccc3ccccc23)cc1Cl [Compound 24Y]	–	–	127%	120%	119%
COc1ccc(CNC(C)c2cccc(SC)c2)cc1C (stereo not shown) [Compound 24Z]	–	–	135%	138%	138%
CCOc1ccc(CN[C@H](C)c2cccc3ccccc23)cc1C [Compound 25A]	–	–	114%	120%	122%
COc1cccc([C@@H](C)NCC=Cc2ccccc2)c1 [Compound 25E, (R)-N-(3-phenylprop-2-enyl)-1-(3-methoxyphenyl)ethylamine]	–	–	122%	129%	132%
COc1cccc([C@@H](C)NCc2cccc3ccccc23)c1 [Compound 25F]	76%	85%	–	–	–
COc1cccc([C@@H](C)NCC(C)=Cc2ccccc2)c1 [Compound 25G, (R)-N-(2-methyl-3-phenylprop-2-enyl)-1-(3-methoxyphenyl)ethylamine]	–	–	99%	115%	130%
COc1cccc([C@@H](C)NC[C@H](C)C=Cc2ccccc2)c1 [Compound 25H, (R,R)-N-(2-methyl-4-phenybut-3-enyl)-1-(3-methoxyphenyl)ethylamine]	–	–	89%	107%	115%
COc1cccc([C@H](C)NC[C@H](C)C=Cc2ccccc2)c1 [Compound 25I, (S,R)-N-(2-methyl-4-phenybut-3-enyl)-1-(3-methoxyphenyl)ethylamine]	–	–	114%	113%	119%
